Reference: ChEMBL document CHEMBL3885881, “DrugMatrix”

Species on record: Rattus norvegicus
Assay: DrugMatrix - Regimen: Daily Repeat
Assay type: toxicity, organism-based, Sprague-Dawley
Design: regimen Daily Repeat, gender Male, age 6-8 weeks
Details: in vivo, po, route oral GAVAGE, vehicle .5 % CMC; for URIC ACID / ALANINE AMINOTRANSFERASE / ALBUMIN / ALKALINE PHOSPHATASE / ASPARTATE AMINOTRANSFERASE / BLOOD UREA NITROGEN / CARBON DIOXIDE / CHLORIDE / CHOLESTEROL / CREATINE PHOSPHOKINASE / CREATININE / GLUCOSE / LACTATE DEHYDROGENASE / LIPASE / PHOSPHORUS / POTASSIUM / SODIUM / TOTAL BILIRUBIN / TOTAL PROTEIN: tissue Plasma; for ABSOLUTE BASOPHIL / ABSOLUTE EOSINOPHIL / ABSOLUTE LYMPHOCYTE / ABSOLUTE MONOCYTE / ABSOLUTE SEGMENTED NEUTROPHIL / BASOPHIL / EOSINOPHIL / ERYTHROCYTE COUNT / HEMATOCRIT / HEMOGLOBIN / LEUKOCYTE COUNT / LYMPHOCYTE / MEAN CORPUSCULAR HEMOGLOBIN / MEAN CORPUSCULAR HEMOGLOBIN CONCENTRATION / MEAN CORPUSCULAR VOLUME / MONOCYTE / NEUTROPHIL / NUCLEATED RED BLOOD CELLS / PLATELET COUNT: tissue Blood
[1] = 250 mg/kg, 120 h, dose level High, time 5 day
[2] = […], 72 h, dose 0.25 mg/Kg, dose level Low, time 3 day
[3] = […], 120 h, dose 0.25 mg/Kg, dose level Low, time 5 day

## C#C[C@]1(O)CC[C@H]2[C@@H]3CCc4cc(OC)ccc4[C@H]3CC[C@@]21C [MESTRANOL]
250 mg/kg, 72 h, dose level High, time 3 day
  URIC ACID: 1.23 mg/dL
[1]
  ABSOLUTE BASOPHIL: 0 CELLS/uL
  ABSOLUTE EOSINOPHIL: 0 CELLS/uL
  ABSOLUTE LYMPHOCYTE: 11929 CELLS/uL
  ABSOLUTE MONOCYTE: 0 CELLS/uL
  ABSOLUTE SEGMENTED NEUTROPHIL: 1137.67 CELLS/uL
  BASOPHIL: 0%
  EOSINOPHIL: 0%
  ERYTHROCYTE COUNT: 6.07 x10E6/uL
  HEMATOCRIT: 37.27%
  HEMOGLOBIN: 14.37 G/DL
  LEUKOCYTE COUNT: 13.07 x10E3/uL
  LYMPHOCYTE: 91.33%
  MEAN CORPUSCULAR HEMOGLOBIN: 23.67 pg
  MEAN CORPUSCULAR HEMOGLOBIN CONCENTRATION: 38.53 G/DL
  MEAN CORPUSCULAR VOLUME: 61.37 fL
  MONOCYTE: 0%
  NEUTROPHIL: 8.67%
  NUCLEATED RED BLOOD CELLS: 0 /100WBC
  PLATELET COUNT: 1600 x10E3/uL
  ALANINE AMINOTRANSFERASE: 72.67 u/L
  ALBUMIN: 4.13 G/DL
  ALKALINE PHOSPHATASE: 667.33 u/L
  ASPARTATE AMINOTRANSFERASE: 77.67 u/L
  BLOOD UREA NITROGEN: 14.67 mg/dL
  CARBON DIOXIDE: 23.67 mmol/L
  CHLORIDE: 102 MEQ/L
  CHOLESTEROL: 4.67 mg/dL
  CREATINE PHOSPHOKINASE: 223.67 u/L
  CREATININE: 0.14 mg/dL
  GLUCOSE: 117 mg/dL
  LACTATE DEHYDROGENASE: 394.67 u/L
  LIPASE: 7.33 u/L
  PHOSPHORUS: 10.63 mg/dL
  POTASSIUM: 6.65 MEQ/L
  SODIUM: 145.1 MEQ/L
  TOTAL BILIRUBIN: 0.13 mg/dL
  URIC ACID: 1.63 mg/dL
[2]
  ABSOLUTE BASOPHIL: 0 CELLS/uL
  ABSOLUTE EOSINOPHIL: 68.33 CELLS/uL
  ABSOLUTE LYMPHOCYTE: 15182.67 CELLS/uL
  ABSOLUTE MONOCYTE: 0 CELLS/uL
  ABSOLUTE SEGMENTED NEUTROPHIL: 1349 CELLS/uL
  BASOPHIL: 0%
  EOSINOPHIL: 0.33%
  ERYTHROCYTE COUNT: 5.73 x10E6/uL
  HEMATOCRIT: 36.73%
  HEMOGLOBIN: 14.03 G/DL
  LEUKOCYTE COUNT: 16.6 x10E3/uL
  LYMPHOCYTE: 91.67%
  MEAN CORPUSCULAR HEMOGLOBIN: 24.5 pg
  MEAN CORPUSCULAR HEMOGLOBIN CONCENTRATION: 38.17 G/DL
  MEAN CORPUSCULAR VOLUME: 64.17 fL
  MONOCYTE: 0%
  NEUTROPHIL: 8%
  NUCLEATED RED BLOOD CELLS: 0 /100WBC
  PLATELET COUNT: 1226 x10E3/uL
  ALANINE AMINOTRANSFERASE: 51.33 u/L
  ALBUMIN: 4.37 G/DL
  ALKALINE PHOSPHATASE: 522.67 u/L
  ASPARTATE AMINOTRANSFERASE: 83.67 u/L
  BLOOD UREA NITROGEN: 12.67 mg/dL
  CARBON DIOXIDE: 28 mmol/L
  CHLORIDE: 101.67 MEQ/L
  CHOLESTEROL: 36 mg/dL
  CREATINE PHOSPHOKINASE: 348.33 u/L
  CREATININE: 0.27 mg/dL
  GLUCOSE: 135.67 mg/dL
  LACTATE DEHYDROGENASE: 453.33 u/L
  LIPASE: 7.67 u/L
  PHOSPHORUS: 11.2 mg/dL
  POTASSIUM: 6.61 MEQ/L
  SODIUM: 145.07 MEQ/L
  TOTAL BILIRUBIN: 0.23 mg/dL
  TOTAL PROTEIN: 6.23 G/DL
  URIC ACID: 1.33 mg/dL
[3]
  ABSOLUTE BASOPHIL: 0 CELLS/uL
  ABSOLUTE EOSINOPHIL: 139.33 CELLS/uL
  ABSOLUTE LYMPHOCYTE: 14510.33 CELLS/uL
  ABSOLUTE MONOCYTE: 98 CELLS/uL
  ABSOLUTE SEGMENTED NEUTROPHIL: 652.33 CELLS/uL
  BASOPHIL: 0%
  EOSINOPHIL: 1%
  ERYTHROCYTE COUNT: 5.62 x10E6/uL
  HEMATOCRIT: 35.57%
  HEMOGLOBIN: 14.03 G/DL
  LEUKOCYTE COUNT: 15.4 x10E3/uL
  LYMPHOCYTE: 94.33%
  MEAN CORPUSCULAR HEMOGLOBIN: 25.13 pg
  MEAN CORPUSCULAR HEMOGLOBIN CONCENTRATION: 39.5 G/DL
  MEAN CORPUSCULAR VOLUME: 63.6 fL
  MONOCYTE: 0.67%
  NEUTROPHIL: 4%
  NUCLEATED RED BLOOD CELLS: 0 /100WBC
  PLATELET COUNT: 1110.33 x10E3/uL
  ALANINE AMINOTRANSFERASE: 49.33 u/L
  ALBUMIN: 3.97 G/DL
  ALKALINE PHOSPHATASE: 553.33 u/L
  ASPARTATE AMINOTRANSFERASE: 70.67 u/L
  BLOOD UREA NITROGEN: 19.33 mg/dL
  CARBON DIOXIDE: 26.67 mmol/L
  CHLORIDE: 102.67 MEQ/L
  CHOLESTEROL: 31.33 mg/dL
  CREATINE PHOSPHOKINASE: 297.67 u/L
  CREATININE: 0.26 mg/dL
  GLUCOSE: 141.33 mg/dL
  LACTATE DEHYDROGENASE: 123.67 u/L
  LIPASE: 7.33 u/L
  PHOSPHORUS: 11.23 mg/dL
  POTASSIUM: 6.54 MEQ/L
  SODIUM: 144.33 MEQ/L
  TOTAL BILIRUBIN: 0.27 mg/dL
  TOTAL PROTEIN: 6 G/DL
  URIC ACID: 1.13 mg/dL
